Values quoted from earlier work, collected in patent publication US20030073826A1 (priority 2001, published 2003).

System: bacteria
Details: U.S. Pat. No. 3,496,163, Example 2

CCC[C@@H]1C[C@@H](C(=O)NC(C(C)Cl)C2OC(SC)C(O)C(O)C2O)N(C)C1 (stereo partly shown) [clindamycin free base]
antibacterial spectrum compared with the hydrochloride salt of clindamycin: same scope and magnitude
